Drawing on patent publication US10577378B2, “EIF4A-inhibiting compounds and methods related thereto” (eFFECTOR Therapeutics, Inc., priority 2015, dated 2020), this text covers IC50 for 22 compounds.

This assay concerns MDA-MB-231 human breast cancer cells. Put plainly: Cell proliferation assay (CellTiter-Glo, 72 hours treatment). The note with it: Homo sapiens; MDA-MB-231 cells, 72 hours at 37° C., CellTiter-Glo; read-out: MDA-MB-231 cell proliferation assay (IC50). Type of assay: cell-based. The method, boiled down: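 MDA-MB-231 cells seeded at 2,500 cells/well, treated next day with compound or DMSO vehicle for 72 h at 37 °C. Proliferation read by CellTiter-Glo; IC50 from sigmoidal non-linear regression, binned as +++ (<100 nM), ++ (100–1000 nM), + (>1000 nM).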
Background: In ATP-based viability assays light output follows the ATP content of the culture.

For `COc1nc(Cl)cc2c1[C@]1(O)[C@H](O)[C@H](CN3CCOCC3)[C@@H](c3ccccc3)[C@]1(c1ccc(C#N)cc1)O2` (racemic) [152F, Rac-4-((5aR,6S,7S,8R,8aS)-3-chloro-8,8a-dihydroxy-1-methoxy-7-(morpholinomethyl)-6-phenyl-6,7,8,8a-tetrahydro-5aH-cyclopenta[4,5]furo[3,2-c]pyridin-5a-yl)benzonitrile], the IC50 is less than 100 nM.

Turning to `COc1nc(C#N)cc2c1[C@]1(O)[C@H](O)[C@H](CN3CCC(F)(F)C3)[C@@H](c3ccccc3)[C@]1(c1ccc(C#N)cc1)O2` (racemic) [153F, Rac-(5aR,6S,7S,8R,8aS)-5a-(4-cyanophenyl)-7-((3,3-difluoropyrrolidin-1-yl)methyl)-8,8a-dihydroxy-1-methoxy-6-phenyl-5a,7,8,8a-tetrahydro-6H-cyclopenta[4,5]furo[3,2-c]pyridine-3-carbonitrile], the IC50 fell in the range of 100 to 1000 nM.

As to `COc1nc(C#N)cc2c1[C@]1(O)[C@H](O)[C@H](CN3CCCC(F)(F)C3)[C@@H](c3ccccc3)[C@]1(c1ccc(C#N)cc1)O2` (racemic) [154F, Rac-(5aR,6S,7S,8R,8aS)-5a-(4-cyanophenyl)-7-((3,3-difluoropiperidin-1-yl)methyl)-8,8a-dihydroxy-1-methoxy-6-phenyl-5a,7,8,8a-tetrahydro-6H-cyclopenta[4,5]furo[3,2-c]pyridine-3-carbonitrile], the IC50 was 100 to 1000 nM.

With `COc1nc(C#N)cc2c1[C@]1(O)[C@H](O)[C@H](CNC(C)(C)C)[C@@H](c3ccccc3)[C@]1(c1ccc(C#N)cc1)O2` (racemic) [155F, Rac-(5aR,6S,7S,8R,8aS)-7-((tert-butylamino)methyl)-5a-(4-cyanophenyl)-8,8a-dihydroxy-1-methoxy-6-phenyl-5a,7,8,8a-tetrahydro-6H-cyclopenta[4,5]furo[3,2-c]pyridine-3-carbonitrile], the IC50 was 100 to 1000 nM.

In the case of `COc1nc(C#N)cc2c1[C@]1(O)[C@H](O)[C@H](CN3CCC(F)CC3)[C@@H](c3ccccc3)[C@]1(c1ccc(Br)cc1)O2` (racemic) [156Fa, Rac-(5aR,6S,7S,8R,8aS)-5a-(4-bromophenyl)-7-((4-fluoropiperidin-1-yl)methyl)-8,8a-dihydroxy-1-methoxy-6-phenyl-5a,7,8,8a-tetrahydro-6H-cyclopenta[4,5]furo[3,2-c]pyridine-3-carbonitrile], the IC50 was less than 100 nM.

In the case of `COc1nc(Cl)cc2c1[C@]1(O)[C@H](O)[C@H](CN3CCC(F)CC3)[C@@H](c3ccccc3)[C@]1(c1ccc(C#N)cc1)O2` (racemic) [156Fb, Rac-4-((5aR,6S,7S,8R,8aS)-3-chloro-7-((4-fluoropiperidin-1-yl)methyl)-8,8a-dihydroxy-1-methoxy-6-phenyl-6,7,8,8a-tetrahydro-5aH-cyclopenta[4,5]furo[3,2-c]pyridin-5a-yl)benzonitrile], the IC50 was less than 100 nM.

As to `COc1nc(C#N)cc2c1[C@]1(O)[C@H](O)[C@H](CN3CCC(F)CC3)[C@@H](c3ccccc3)[C@]1(c1ccc(C#N)cc1)O2` (racemic) [156Fc, Rac-(5aR,6S,7S,8R,8aS)-5a-(4-cyanophenyl)-7-((4-fluoropiperidin-1-yl)methyl)-8,8a-dihydroxy-1-methoxy-6-phenyl-5a,7,8,8a-tetrahydro-6H-cyclopenta[4,5]furo[3,2-c]pyridine-3-carbonitrile], the IC50 was less than 100 nM.

For `COc1nc(C#N)cc2c1[C@]1(O)[C@H](O)[C@H](CN3CCC(F)(F)CC3)[C@@H](c3ccccc3)[C@]1(c1ccc(Br)cc1)O2` (racemic) [157Fa, Rac-(5aR,6S,7S,8R,8aS)-5a-(4-bromophenyl)-7-((4,4-difluoropiperidin-1-yl)methyl)-8,8a-dihydroxy-1-methoxy-6-phenyl-5a,7,8,8a-tetrahydro-6H-cyclopenta[4,5]furo[3,2-c]pyridine-3-carbonitrile], the IC50 lay within 100 to 1000 nM.

Consider `COc1nc(Cl)cc2c1[C@]1(O)[C@H](O)[C@H](CN3CCC(F)(F)CC3)[C@@H](c3ccccc3)[C@]1(c1ccc(C#N)cc1)O2` (racemic) [157Fb, Rac-4-((5aR,6S,7S,8R,8aS)-3-chloro-7-((4,4-difluoropiperidin-1-yl)methyl)-8,8a-dihydroxy-1-methoxy-6-phenyl-6,7,8,8a-tetrahydro-5aH-cyclopenta[4,5]furo[3,2-c]pyridin-5a-yl)benzonitrile], for which the IC50 was in the range of 100 to 1000 nM.

For `COc1nc(C#N)cc2c1[C@]1(O)[C@H](O)[C@H](CN3CCC(F)(F)CC3)[C@@H](c3ccccc3)[C@]1(c1ccc(C#N)cc1)O2` (racemic) [157Fc, Rac-(5aR,6S,7S,8R,8aS)-5a-(4-cyanophenyl)-7-((4,4-difluoropiperidin-1-yl)methyl)-8,8a-dihydroxy-1-methoxy-6-phenyl-5a,7,8,8a-tetrahydro-6H-cyclopenta[4,5]furo[3,2-c]pyridine-3-carbonitrile], the IC50 was in the range of 100 to 1000 nM.

For the compound `COc1nc(C#N)cc2c1[C@]1(O)[C@H](O)[C@H](CN3CCCC3)[C@@H](c3ccccc3)[C@]1(c1ccc(Br)cc1)O2` (racemic) [158Fa, Rac-(5aR,6S,7S,8R,8aS)-5a-(4-bromophenyl)-8,8a-dihydroxy-1-methoxy-6-phenyl-7-(pyrrolidin-1-ylmethyl)-5a,7,8,8a-tetrahydro-6H-cyclopenta[4,5]furo[3,2-c]pyridine-3-carbonitrile], the IC50 was less than 100 nM.

As for `COc1nc(Cl)cc2c1[C@]1(O)[C@H](O)[C@H](CN3CCCC3)[C@@H](c3ccccc3)[C@]1(c1ccc(C#N)cc1)O2` (racemic) [158Fb, Rac-4-((5aR,6S,7S,8R,8aS)-3-chloro-8,8a-dihydroxy-1-methoxy-6-phenyl-7-(pyrrolidin-1-ylmethyl)-6,7,8,8a-tetrahydro-5aH-cyclopenta[4,5]furo[3,2-c]pyridin-5a-yl)benzonitrile], the IC50 is less than 100 nM.

On to `COc1nc(C#N)cc2c1[C@]1(O)[C@H](O)[C@H](CN3CCCC3)[C@@H](c3ccccc3)[C@]1(c1ccc(C#N)cc1)O2` (racemic) [158Fc, Rac-(5aR,6S,7S,8R,8aS)-5a-(4-cyanophenyl)-8,8a-dihydroxy-1-methoxy-6-phenyl-7-(pyrrolidin-1-ylmethyl)-5a,7,8,8a-tetrahydro-6H-cyclopenta[4,5]furo[3,2-c]pyridine-3-carbonitrile], for which the IC50 was less than 100 nM.

With `CCN(CC)C[C@H]1[C@@H](O)[C@@]2(O)c3c(cc(C#N)nc3OC)O[C@@]2(c2ccc(Br)cc2)[C@@H]1c1ccccc1` (racemic) [159Fa, Rac-(5aR,6S,7S,8R,8aS)-5a-(4-bromophenyl)-7-((diethylamino)methyl)-8,8a-dihydroxy-1-methoxy-6-phenyl-5a,7,8,8a-tetrahydro-6H-cyclopenta[4,5]furo[3,2-c]pyridine-3-carbonitrile], the IC50 is less than 100 nM.

On to `CCN(CC)C[C@H]1[C@@H](O)[C@@]2(O)c3c(cc(Cl)nc3OC)O[C@@]2(c2ccc(C#N)cc2)[C@@H]1c1ccccc1` (racemic) [159Fb, Rac-4-((5aR,6S,7S,8R,8aS)-3-chloro-7-((diethylamino)methyl)-8,8a-dihydroxy-1-methoxy-6-phenyl-6,7,8,8a-tetrahydro-5aH-cyclopenta[4,5]furo[3,2-c]pyridin-5a-yl)benzonitrile], for which the IC50 was less than 100 nM.

In the case of `CCN(CC)C[C@H]1[C@@H](O)[C@@]2(O)c3c(cc(C#N)nc3OC)O[C@@]2(c2ccc(C#N)cc2)[C@@H]1c1ccccc1` (racemic) [159Fc, Rac-(5aR,6S,7S,8R,8aS)-5a-(4-cyanophenyl)-7-((diethylamino)methyl)-8,8a-dihydroxy-1-methoxy-6-phenyl-5a,7,8,8a-tetrahydro-6H-cyclopenta[4,5]furo[3,2-c]pyridine-3-carbonitrile], the IC50 is less than 100 nM.

`O[C@@H]1[C@H](Sc2ccccn2)[C@@H](c2ccccc2)[C@]2(c3ccc(Br)cc3)Oc3cc(Cl)cnc3[C@]12O` (racemic) [160Fa, Rac-(5aR,6S,7R,8S,8aS)-5a-(4-bromophenyl)-3-chloro-6-phenyl-7-(pyridin-2-ylthio)-5a,6,7,8-tetrahydro-8aH-cyclopenta[4,5]furo[3,2-b]pyridine-8,8a-diol]: the IC50 lay in the range of 100 to 1000 nM.

On to `O[C@H]1[C@H](Sc2ccccn2)[C@@H](c2ccccc2)[C@]2(c3ccc(Br)cc3)Oc3cc(Cl)cnc3[C@]12O` (racemic) [160Fb, Rac-(5aR,6S,7R,8R,8aS)-5a-(4-bromophenyl)-3-chloro-6-phenyl-7-(pyridin-2-ylthio)-5a,6,7,8-tetrahydro-8aH-cyclopenta[4,5]furo[3,2-b]pyridine-8,8a-diol], for which the IC50 is more than 1000 nM.

For `COC(=O)[C@@H]1[C@@H](c2ccccc2)[C@]2(c3ccc(Br)cc3)Oc3cc(Cl)cnc3[C@@]23O[C@@H]13` (racemic) [161F, Rac-methyl (1aS,2R,3S,3aR,8bS)-3a-(4-bromophenyl)-6-chloro-3-phenyl-1a,2,3,3a-tetrahydro-oxireno[2″,3″:1′,5′]cyclopenta[1′,2′:4,5]furo[3,2-b]pyridine-2-carboxylate], the IC50 is more than 1000 nM.

For `OC[C@H]1C[C@@H](c2ccccc2)[C@]2(c3ccc(Br)cc3)Oc3cc(Cl)cnc3[C@]12O` (racemic) [162F, Rac-(5aR,6S,8R,8aR)-5a-(4-bromophenyl)-3-chloro-8-(hydroxymethyl)-6-phenyl-5a,6,7,8-tetrahydro-8aH-cyclopenta[4,5]furo[3,2-b]pyridin-8a-ol], the IC50 lay in the range of 100 to 1000 nM.

On to `O=S(=O)(c1ccccn1)[C@H]1[C@@H](O)[C@@]2(O)c3ncc(Cl)cc3O[C@@]2(c2ccc(Br)cc2)[C@@H]1c1ccccc1` (racemic) [163F, rac-(5aR,6S,7R,8S,8aS)-5a-(4-bromophenyl)-3-chloro-6-phenyl-7-(pyridin-2-ylsulfonyl)-5a,6,7,8-tetrahydro-8aH-cyclopenta[4,5]furo[3,2-b]pyridine-8,8a-diol], for which the IC50 was 100 to 1000 nM.

Consider `N#Cc1ccc([C@@]23Oc4cc(Cl)cnc4[C@]2(O)[C@H](O)[C@H](S(=O)(=O)c2ccccn2)[C@H]3c2ccccc2)cc1` (racemic) [164F, Rac-4-((5aR,6S,7R,8S,8aS)-3-chloro-8,8a-dihydroxy-6-phenyl-7-(pyridin-2-ylsulfonyl)-6,7,8,8a-tetrahydro-5aH-cyclopenta[4,5]furo[3,2-b]pyridin-5a-yl)benzonitrile], for which the IC50 was in the range of 100 to 1000 nM.
